Measurements reported in patent US11317626B2, “Forchlorfenuron mixtures and uses thereof” (Valent BioSciences LLC, priority 2018, dated 2022).

Tests used:
Type in all cases: in vivo
Concord grape vines [1] = assay: Example 2: Concord grape vines greenhouse, forchlorfenuron and 15-0-0 fertilizer (Erger) study; settings: for Fresh Weight at Harvest: combined shoot fresh weight, 52 days after planting; for 50% BB: days after treatment to 50% bud break; for Average Number of Broken Nodes Per Plant at Harvest: harvest 52 days after planting
From the text: (§1) To assess the ability of mixtures of the invention to promote and synchronize bud break these mixtures were applied to Concord grape vines and examined for bud break (initiation of growth) and subsequent shoot development. Specifically, dormant bare-rooted Concord grape vines were planted in pots containing Pro-Mix® BX potting soil (Pro-Mix is a registered trademark of and available from Premier Horticulture Ltd.) and pruned to five nodes on a single shoot of one-year-old wood. Nodes are regions on the shoot where leaves arise from the shoot and buds are present at the axis of the shoot:leaf interface. The bud found at the shoot:leaf interface develops into the vines new shoot growth. Aqueous solutions of forchlorfenuron, HC, 15-0-0 fertilizer, 17-0-0 fertilizer, and mixtures thereof were each applied individually or sequentially or co-applied to the first-year wood of separate Concord grape vines. […] Percent bud break is determined by the number of plants that have at least one bud broken divided by the total number of plants per treatment times 100. […] New shoot growth is the growth arising from the dormant buds not including the woody growth that was planted and gave rise to the new growth.
(§2) To determine if the mixtures provided unexpected results, the observed combined efficacy (“OCE”) was divided by the expected combined efficacy (“ECE”) wherein the expected ECE is calculated by the Abbott method: ECE=A+B−(AB/100), • wherein ECE is the expected combined efficacy and in which A and B are the speed of bud break relative to control, the number of buds broken per plant relative to control, shoot length relative to control or shoot weight relative to control given by the single active ingredients. If the ratio between the OCE of the mixture and the ECE of the mixture is greater than 1, then greater than expected interactions are present in the mixture. (Gisi, Synergistic Interaction of Fungicides in Mixtures, The American Phytopathological Society, 86:11, 1273-1279,1996). Results
(§3) The experiment from Example 1 was repeated with varying quantities of forchlorfenuron and fertilizers in a greenhouse experiment.

Concord grape vines [2] = assay: Example 2: Concord grape vines greenhouse, forchlorfenuron and 17-0-0 fertilizer (CAN17) study; settings: for Fresh Weight at Harvest: combined shoot fresh weight, 52 days after planting; for 50% BB: days after treatment to 50% bud break; for Average Number of Broken Nodes Per Plant at Harvest: harvest 52 days after planting
From the text: as §1, §2, §3

Malus (apple) rootstocks = assay: Example 4: bud break and shoot growth of Malus (apple) rootstocks; settings: for Fresh Weight at Harvest: combined new shoot growth; for Fresh Weight at Harvest / Average Number of Broken Buds Per Malus Plant at Harvest / Fresh Weight per Bud at Harvest / Average Number of Broken Nodes Per Centimeter of Shoot at Harvest: harvest at 28 days; for Average Number of Broken Nodes Per Centimeter of Shoot at Harvest: rootstocks pruned to 25 centimeters
Protocol: as §2
(§4) To assess the ability of mixtures of the invention to promote and synchronize bud break, these mixtures were applied to field-grown Malus (apple) rootstocks and examined for bud break (initiation of growth) and subsequent shoot development. Forchlorfenuron, Dormex (50% HC), 15-0-0 (Erger®) and 17-0-0 fertilizers (CAN17), and mixtures thereof were each applied individually or sequentially (co-applied) to the shoots of potted Malus rootstocks that were pruned to a height of 25 centimeters. Plants were evaluated for bud break at 28 days after treatment.

[3] = system: Flame seedless grape vines; assay: Example 3: bud break on spurs of field-grown Flame seedless grape vines; settings: 41 days post application
Protocol: as §2
as §4, with “Flame seedless grape vines in Thermal, Calif.,” for “Malus (apple) rootstocks”, “separate spurs” for “shoots”, “Flame seedless grape vines.” for “potted Malus rootstocks that were pruned to a height of 25 centimeters.”, “41” for “28”, “treatment. Results of these evaluations can be seen below in Tables 11 and 12.” for “treatment.”

Compound: O=C(Nc1ccccc1)Nc1ccnc(Cl)c1 [CPPU, N-(2-Chloro-4-pyridyl)-N′-phenylurea]
- Fresh Weight at Harvest (Concord grape vines [1]; listed as CPPU 300 ppm): 18.04 grams
- Fresh Weight at Harvest (Concord grape vines [1]; listed as CPPU 600 ppm): 18.54 grams
- Fresh Weight at Harvest (Concord grape vines [1]; listed as CPPU 1000 ppm): 29.13 grams
- 50% BB (Concord grape vines [1]; listed as CPPU 300 ppm): 26 days
- 50% BB (Concord grape vines [1]; listed as CPPU 600 ppm): 31 days
- 50% BB (Concord grape vines [1]; listed as CPPU 1000 ppm): 24 days
- Average Number of Broken Nodes Per Plant at Harvest (Concord grape vines [1]; listed as CPPU 300 ppm): 1.25
- Average Number of Broken Nodes Per Plant at Harvest (Concord grape vines [1]; listed as CPPU 600 ppm): 1.88
- Average Number of Broken Nodes Per Plant at Harvest (Concord grape vines [1]; listed as CPPU 1000 ppm): 2.63
- Fresh Weight at Harvest (Concord grape vines [2]; listed as CPPU 300 ppm): 14.30 grams
- Fresh Weight at Harvest (Concord grape vines [2]; listed as CPPU 600 ppm): 15.10 grams
- Fresh Weight at Harvest (Concord grape vines [2]; listed as CPPU 1000 ppm): 11.33 grams
- 50% BB (Concord grape vines [2]; listed as CPPU 300 ppm): 31 days
- 50% BB (Concord grape vines [2]; listed as CPPU 600 ppm): 35 days
- 50% BB (Concord grape vines [2]; listed as CPPU 1000 ppm): 38 days
- Average Number of Broken Nodes Per Plant at Harvest (Concord grape vines [2]; listed as CPPU 300 ppm): 1.86
- Average Number of Broken Nodes Per Plant at Harvest (Concord grape vines [2]; listed as CPPU 600 ppm): 2.00
- Average Number of Broken Nodes Per Plant at Harvest (Concord grape vines [2]; listed as CPPU 1000 ppm): 1.80
- Fresh Weight at Harvest (Malus (apple) rootstocks; listed as CPPU 300 ppm): 6.98 grams
- Fresh Weight at Harvest (Malus (apple) rootstocks; listed as CPPU 600 ppm): 5.65 grams
- 50% BB (Malus (apple) rootstocks; days after treatment to 50% bud break): 12 days
- Average Number of Broken Buds Per Malus Plant at Harvest (Malus (apple) rootstocks; listed as CPPU 300 ppm): 7.00
- Fresh Weight per Bud at Harvest (Malus (apple) rootstocks; listed as CPPU 300 ppm): 0.88 grams
- Average Number of Broken Buds Per Malus Plant at Harvest (Malus (apple) rootstocks; listed as CPPU 600 ppm): 8.25
- Fresh Weight per Bud at Harvest (Malus (apple) rootstocks; listed as CPPU 600 ppm): 0.71 grams
- Average Number of Broken Nodes Per Centimeter of Shoot at Harvest (Malus (apple) rootstocks; listed as CPPU 300 ppm): 0.28
- Average Number of Broken Nodes Per Centimeter of Shoot at Harvest (Malus (apple) rootstocks; listed as CPPU 600 ppm): 0.33
- 50% BB OCE (Malus (apple) rootstocks; observed efficacy, relative to control): 2
- Broken Buds per Spur (OCE) ([3]; listed as CPPU 300 ppm): 0.00
- Percentage of Spurs With At Least One Bud Broken (OCE) ([3]; listed as CPPU 300 ppm): 0%
- Broken Buds per Spur (OCE) ([3]; listed as CPPU 600 ppm): 0.03
- Percentage of Spurs With At Least One Bud Broken (OCE) ([3]; listed as CPPU 600 ppm): 3%
- Broken Buds per Spur (OCE) ([3]; listed as CPPU 1000 ppm): 0.00
- Percentage of Spurs With At Least One Bud Broken (OCE) ([3]; listed as CPPU 1000 ppm): 0%
